Results published in article PMC6155649 (Molecules : A Journal of Synthetic Chemistry and Natural …, 2017).
Like-named read-outs stand apart in the source and are kept apart here. Marks after values point to notes of the source that are not given here.

Tests used:
P. falciparum Dd2 [1] = assay: tritiated hypoxanthine incorporation growth inhibition assay; assay type: cell-based; settings: for IC50: mean value
Protocol: (§1) The protocols are described in the experimental section. Two protocols to measure the growth inhibition were used: the tritiated hypoxanthine incorporation method and the SYBRgreen method. This was due to the fact that the radioactive assay was abandoned in the laboratory due to cost issues related to radioactive waste disposal. […] All data are mean values from one to four independent experiments, each consisting of eight drug concentrations in duplicate.
The IC50 values were determined using standard in vitro proliferation assays. […] The amount of radioactivity in precipitable material served as an index of parasite proliferation.

[2] = test system: human lung MRC-5 fibroblasts; assay: cytotoxicity, Alamar Blue (resazurin) assay; settings: human MRC-5 fibroblasts, 3 days incubation
Protocol: All compounds were tested for cytotoxicity on human lung MRC-5 fibroblasts using the Alamar Blue assay (Table 1 and Table 2).
MRC-5SV2 cells are cultured in Earls MEM +5% FCSi. […] After 3 days incubation, cell viability is assessed fluorimetrically after addition of resazurin and fluorescence is measured (λex 550 nm, λem 590 nm). The results are expressed as % reduction in cell growth/viability compared to untreated control wells and CC50 is determined.

P. falciparum Dd2 [3] = assay: SYBRgreen growth inhibition assay; assay type: cell-based; settings: read-out: IC50 (nM) ± SD (n)
Protocol: as §1
Parasite replication was assessed by fluorescent SYBRgreen staining of parasitic DNA [60] as previously described. IC50 values were calculated using SigmaPlot.

P. falciparum Dd2 [4] = test system: P. falciparum Dd2; design: method as in PMID 21682307; settings: P. falciparum Dd2, tritiated hypoxanthine incorporation method, previously reported values; cited from earlier work
[5] = test system: human lung MRC-5 fibroblasts; design: method as in PMID 21682307; settings: human MRC-5 fibroblasts, previously reported values; cited from earlier work
P. berghei strain ANKA = test system: P. berghei strain ANKA; design: method as in PMID 21682307; settings: P. berghei strain ANKA-infected CD1 mice, day 4; cited from earlier work
P. berghei (ANKA-strain) = assay: in vivo antimalarial activity in P. berghei ANKA-infected Swiss mice; design: species or system Plasmodium berghei; settings: for % Parasitaemia (dpi) 4 / % Suppression (dpi) 4: day 4 post infection; for % Parasitaemia (dpi) 7 / % Suppression (dpi) 7: day 7 post infection; for % Parasitaemia (dpi) 11 / % Suppression (dpi) 11: day 11 post infection
Protocol: Swiss mice (female—BW ~ 25 g; Janvier France, Le Genest Saint Isle, France) were allocated randomly to five groups of four animals each. Drinking water and food were available ad libitum throughout the experiment.
P. berghei (ANKA-strain) is maintained in the laboratory by weekly mechanical subpassage in Swiss mice. The infection inoculum was prepared by taking heparinized blood was collected from a clinically ill donor mouse (approximately 20% parasitaemia) and diluted in PBS to obtain an infection inoculum of 0.15 mL with about 4 × 10^8 infected erythrocytes. The infection-inoculum was given intraperitoneally. The untreated infected controls developed severe malaria with most animals showing severe clinical signs on day 4. […]. […]

Fe^III-heme = settings: read-out: KD of the 1:1 π-π complex with Fe^III-heme; pH 7.5; cited from earlier work
[6] = absorption spectrophotometric titrations versus pH (pKa); settings: for [LH+]pH5/[LH+]pH7.4: ratio of protonated species at pH 5 and 7.4, I = 0.1 M NaClO4, T = 25 °C; for pH of precipitation during the titration: H2O/DMSO, 91/1 v/v as printed, pKa could not be accurately evaluated
Source text: The HClO4 and NaOH solutions were freshly prepared just before use and titrated with sodium tetraborate decahydrate (B4Na2O7·10H2O, puriss, p.a, Fluka) and potassium hydrogen phthalate (C8H5KO3, Fluka, puriss, p.a.), respectively, using methyl orange (RAL) and phenolphthalein (Prolabo, purum) as the indicators. The GLEE program was applied for the glass electrode calibration (standard electrode potential E0/mV and slope of the electrode/mV pH^−1) and to check carbonate levels of the NaOH solutions used (<5%). The cell was thermostated at 25.0 ± 0.2 °C by the flow of a Lauda E200 thermostat. A stream of argon, pre-saturated with water vapour, was passed over the surface of the solution.
The spectrophotometric data were analyzed with the Specfit program which adjusts the absorptivities and the stability constants of the species formed at equilibrium. Specfit uses factor analysis to reduce the absorbance matrix and to extract the eigenvalues prior to the multiwavelength fit of the reduced data set according to the Marquardt algorithm.

[7] = observation of precipitation in DMSO; assay type: physicochemical; settings: table footnote *
[8] = in 0.4 M KCl; cited from earlier work
[9] = P. falciparum Dd2, tritiated hypoxanthine incorporation method
[10] = P. falciparum Dd2, SYBRgreen method, 72 h
[11] = Plasmodium falciparum, DD2, 72 h
[12] = 10 mg/kg ip for 5 days, Swiss mice
[13] = 10 mg/kg ip for 5 days, Swiss mice, day 14 post infection
[14] = 10 mg/kg ip for 5 days, infected Swiss mice
[15] = Plasmodium falciparum, P. falciparum Dd2, SYBRgreen method, 72 h
[16] = 0.1 M NaClO4 in water/DMSO (91:9 v/v)
[17] = Plasmodium falciparum, DD2, P. falciparum Dd2, tritiated hypoxanthine incorporation method
[18] = 50 mg/kg ip for 5 days, Swiss mice

2-(4′-nitro-Butyl-biphenyl-4-ylmethyl)-3-methyl-[1,4]naphthoquinone [Compound 28]
IC50 (P. falciparum Dd2 [1]; [9]): 474 nM
Tox/MRC-5 [2]: >64.0 µM

2-Methyl-3-(2-bromo-benzyl)-4a,8a-dihydro-[1,4]naphthoquinone [Compound 25a]
IC50 (P. falciparum Dd2 [3]; [10]): 86.3 nM
Tox/MRC-5 [2]: >64.0 µM

2-Methyl-3-(3-bromo-benzyl)-4a,8a-dihydro-[1,4]naphthoquinone [Compound 25b]
IC50 (P. falciparum Dd2 [3]; [10]): 128 nM
Tox/MRC-5 [2]: 20.8 µM

2-Methyl-3-(4-bromo-benzyl)-4a,8a-dihydro-[1,4]naphthoquinone [Compound 25c]
IC50 (P. falciparum Dd2 [3]; [10]): 82 ± 2 nM
IC50 (P. falciparum Dd2 [4]): 46 ± 4 nM
Tox/MRC-5 [5]: >32.0 µM
Tox/MRC-5 (µM) [5]: >32.0 ^b µM
reduction of parasitemia (P. berghei strain ANKA): 35.8%

CCN(CC)CCCC(C)Nc1ccnc2cc(Cl)ccc12 (centres unmarked) [Chloroquine, chloroquine]
IC50 (P. falciparum Dd2 [3]; [11]): 99 ± 19 nM
% Parasitaemia (dpi) 4 (P. berghei (ANKA-strain); [12]): 5.2%
% Suppression (dpi) 4 (P. berghei (ANKA-strain); [12]): 86.3%
% Parasitaemia (dpi) 7 (P. berghei (ANKA-strain); [12]): 9.8%
% Suppression (dpi) 7 (P. berghei (ANKA-strain); [12]): 76.8%
% Parasitaemia (dpi) 11 (P. berghei (ANKA-strain); [12]): 32.1%
% Suppression (dpi) 11 (P. berghei (ANKA-strain); [12]): 52.7%
% Parasitaemia (dpi) 14 (P. berghei (ANKA-strain); [13]): 56.2%
% Suppression (dpi) 14 (P. berghei (ANKA-strain); [13]): 9.2%
Health Status (P. berghei (ANKA-strain); [14]): From day 4 p.i. onwards: poor appearance, tremor, body weight loss, rough hair, one animal died before day 14 p.i.
survival until day 7 (P. berghei (ANKA-strain); [14]): 100%
IC50 (P. falciparum Dd2 [4]): 110 ± 20 nM
Tox/MRC-5 [5]: 51.5 µM
Kd (Fe^III-heme): 2000 to 15000 nM

CC1=C(Cc2ccc(N(C)C)cc2)C(=O)c2ccccc2C1=O [Compound 3, 2-(4-(Dimethylamino)benzyl)-3-methylnaphthalene-1,4-dione]
IC50 (P. falciparum Dd2 [3]; [15]): 567 ± 217 nM
Tox/MRC-5 [2]: >64.0 µM
pKa [6, 16]: 4.87 ± 0.03
[LH+]pH5/[LH+]pH7.4 ([6]; Water/DMSO (0.91/0.09 v/v)): 144.7

CC1=C(Cc2ccc(NC(=O)OC(C)(C)C)cc2)C(=O)c2ccccc2C1=O [Compound 6, tert-Butyl(4-((3-Methyl-1,4-dioxo-1,4-dihydronaphthalen-2-yl)methyl)phenyl) carbamate]
IC50 (P. falciparum Dd2 [1]; [9]): 42.5 nM
IC50 (P. falciparum Dd2 [1]; [17]): 42 nM
IC50 (P. falciparum Dd2 [3]; [15]): 109 ± 46 nM
Tox/MRC-5 [2]: >64.0 µM
% Parasitaemia (dpi) 4 (P. berghei (ANKA-strain); [18]): 9.4%
% Suppression (dpi) 4 (P. berghei (ANKA-strain); [18]): 75.5%
% Parasitaemia (dpi) 7 (P. berghei (ANKA-strain); [18]): 7.7%
% Suppression (dpi) 7 (P. berghei (ANKA-strain); [18]): 81.8%
% Parasitaemia (dpi) 11 (P. berghei (ANKA-strain); [18]): 41.9%
% Suppression (dpi) 11 (P. berghei (ANKA-strain); [18]): 38.1%
% Parasitaemia (dpi) 14 (P. berghei (ANKA-strain); 50 mg/kg ip for 5 days, Swiss mice, day 14 post infection): 69.3%
Health Status (P. berghei (ANKA-strain); 50 mg/kg ip for 5 days, infected Swiss mice): From day 4 p.i. onwards: poor appearance (intermittent), one animal died before day 14 p.i.

CC1=C(Cc2ccc(N)cc2)C(=O)c2ccccc2C1=O [Compound 7, 2-(4-Aminobenzyl)-3-methylnaphthalene-1,4-dione]
IC50 (P. falciparum Dd2 [3]; [15]): 303 ± 138 nM
Tox/MRC-5 [2]: >64.0 µM
[LH+]pH5/[LH+]pH7.4 ([6]; Water): 162.5
pKa ([6]; water with 0.1 M NaClO4): 4.74 ± 0.05

CC(=O)Nc1ccc(CC2=C(C)C(=O)c3ccccc3C2=O)cc1 [Compound 9, N-(4-((3-Methyl-1,4-dioxo-1,4-dihydronaphthalen-2-yl)methyl)phenyl)acetamide]
IC50 (P. falciparum Dd2 [3]; [11]): 411 ± 220 nM

CCN(CC)c1ccc(CC2=C(C)C(=O)c3ccccc3C2=O)cc1 [Compound 11, 2-(4-(Diethylamino)benzyl)-3-methylnaphthalene-1,4-dione]
IC50 (P. falciparum Dd2 [3]; [15]): 2060 ± 1070 nM
Tox/MRC-5 [2]: 29.3 µM
pKa [6, 16]: 5.07 ± 0.06
[LH+]pH5/[LH+]pH7.4 ([6]; Water/DMSO (0.91/0.09 v/v)): 112.0

CC(=O)Nc1cccc(CC2=C(C)C(=O)c3ccccc3C2=O)c1 [Compound 16, N-(3-((3-Methyl-1,4-dioxo-1,4-dihydronaphthalen-2-yl)methyl)phenyl)acetamide]
IC50 (P. falciparum Dd2 [3]; [11]): 310 ± 134 nM

CC1=C(Cc2cccc(N)c2)C(=O)c2ccccc2C1=O [Compound 17, 2-(3-Aminobenzyl)-3-methylnaphthalene-1,4-dione]
IC50 (P. falciparum Dd2 [3]; [15]): 1200 ± 1650 nM
Tox/MRC-5 [2]: >64.0 µM
[LH+]pH5/[LH+]pH7.4 ([6]; Water): 209.6
pKa ([6]; water with 0.1 M NaClO4): 4.3 ± 0.02
behaviour in DMSO [7]: Precipitates in DMSO

CC1=C(Cc2cccc(N(C)C)c2)C(=O)c2ccccc2C1=O [Compound 18, 2-(3-(Dimethylamino)benzyl)-3-methylnaphthalene-1,4-dione]
IC50 (P. falciparum Dd2 [3]; [15]): 386 ± 151 nM
Tox/MRC-5 [2]: >64.0 µM
pKa [6, 16]: 4.6 ± 0.04
[LH+]pH5/[LH+]pH7.4 ([6]; Water/DMSO (0.91/0.09 v/v)): 179.9

CCN(CC)c1cccc(CC2=C(C)C(=O)c3ccccc3C2=O)c1 [Compound 19, 2-(3-(Diethylamino)benzyl)-3-methylnaphthalene-1,4-dione]
IC50 (P. falciparum Dd2 [3]; [15]): 236 ± 97 nM
Tox/MRC-5 [2]: >64.0 µM
pKa [6, 16]: 5 to 5.5
pH of precipitation during the titration [6]: ~ 5

CC(=O)Nc1ccccc1CC1=C(C)C(=O)c2ccccc2C1=O [Compound 22, N-(2-((3-Methyl-1,4-dioxo-1,4-dihydronaphthalen-2-yl)methyl)phenyl)acetamide]
IC50 (P. falciparum Dd2 [3]; [15]): 282 ± 86 nM
Tox/MRC-5 [2]: 4.4 µM
melting point: 218 to 220 °C

CC1=C(Cc2ccc(-c3ccc(N(C)C)cc3)cc2)C(=O)c2ccccc2C1=O [Compound 26, 2-(4′-Dimethylamino-biphenyl-4-ylmethyl)-3-methyl-[1,4]naphthoquinone]
fold higher IC50 value than plasmodione (P. falciparum Dd2 [1]; P. falciparum Dd2, hypoxanthine incorporation test): 10 fold
IC50 (P. falciparum Dd2 [1]; [9]): 223 nM
IC50 (P. falciparum Dd2 [1]; [17]): 229 nM
Tox/MRC-5 [2]: >64.0 µM
melting point: 170 to 171 °C

CC1=C(Cc2ccc(-c3ccc(C(C)(C)C)cc3)cc2)C(=O)c2ccccc2C1=O [Compound 27, 2-(4′-tert-Butyl-biphenyl-4-ylmethyl)-3-methyl-[1,4]naphthoquinone]
IC50 (P. falciparum Dd2 [1]; [17]): 485 nM
Tox/MRC-5 [2]: >64.0 µM
melting point: 112 to 114 °C

OCCN(CCO)c1ccccc1 [N-phenyldiethanolamine]
pKa [8]: 4.13

para-N-ethyl-3-benzylmenadione [Compound 10]
IC50 (P. falciparum Dd2 [3]; [10]): 418 ± 166 nM
Tox/MRC-5 [2]: >64.0 µM
pKa ± σ [6]: 5–5.5
pH of precipitation during the titration [6]: ~ 5
